Test results published in patent publication US11532406B2, “High specific activity preparation of F-18 tetrafluoroborate” (Mayo Foundation for Medical Education and Research, priority 2016, dated 2022).
pIC50: −log10 of the molar value.

Columns and labels:
[1] = Stability of ^18F-TFB (radio-TLC and anion chromatography HPLC); assay type: physicochemical; conditions: NaBF4 stock solution stored for 7 month at room temperature
Procedure: The product ^18F-TFB was analyzed for radiochemical purity by both radio-TLC (MeOH, Rf=0.8-0.85) and anion chromatography HPLC with radioactivity detector (Dionex IC-2100, AS19 analytical column: 4.7×150 mm; eluent: 35 mM KOH; sample volume: 25.L; flow rate: 1 mL/min; retention times: 7.6 min for ^18F-TFB, […]). Chemical purity and specific activity were analyzed by anion chromatography HPLC (retention times: 3.5 min for fluoride, 4.3 min for chloride, and 7.6 min for BF4—). Residual organic solvents were analyzed by GC (helium carrier gas flow at 10 cc/min through a MXTWAX column (Restek, Bellefonte, Pa., 0.53 mm ID, 30 m length)).
After the synthesis, a sample was diluted with water for the analysis. With the eluent of methanol on silica gel plate, purities of >98% were obtained on the radio-TLC scanner.
^18F-TFB was prepared and formulated in sterile 0.9% NaCl under cGMP conditions as previously described (12). Decay-corrected radiochemical yields of 32±2% and radiochemical purities (RCPs) >98% were obtained. Specific radioactivity of 2.2±0.9 GBq/μmol was achieved from starting ^18F-fluoride radioactivity of 20-31 GBq. In vitro RCP remained >96% up to 8 h at room temperature.

NIS = conditions: reference (21); read-out: IC50 for inhibition of iodine uptake by NIS in thyroid; cited from earlier work

| Structure (SMILES) | TFB decayed (HPLC) [1] | pIC50 (NIS) |
| --- | --- | --- |
| F[B-](F)(F)F.[Na+] [NaBF4, reference compound] | 50% | – |
| F[B-](F)(F)F [TFB, tetrafluoroborate] | – | 6.00 to 7.00 |
